In patent publication US7855228B2, “Antibiotics targeting MreB” (The Board of Trustees of the Leland Stamford Junior …, priority 2005, dated 2010):
*1 amine or outer side, *2 acyl side, *3 side chain or, on linkers, in order; H or OH if unused. Where a SMILES comes first, the peptide text is derived from it. Bridges are numbered along the chain shown (N, C = ends). [ ]: non-standard residue; d: D form. Trp(2-yl) = O=C([C@H](Cc1c([*:3])[nH]c2ccccc12)N[*:1])[*:2]; Leu(4R-OH,5-OH) = C[C@](O)(CO)C[C@H](N)C(=O)O; cisHyp = O=C(O)[C@@H]1C[C@H](O)CN1

Tests used:
P. putida NBRC14164 = test: Determination of minimum inhibitory concentration (MIC); format: cell-based, Pseudomonas putida; settings: for MIC P. putida: Example 2, methods as in Example 1; for MIC: Pseudomonas putida, NBRC14164, read-out: MIC P. putida
Description: (§1) Determination of minimum inhibitory concentration (MIC). MICs were also determined on Mueller Hinton agar plates (0.2% beef extract, 1.75% acid digest of casein, 0.15% soluble starch, 1.5% agar, pH 7.3).
(§2) Determination of MIC Minimal inhibitory concentrations (MICs) were determined using a standard 2-fold serial dilution format on L agar plates. Ten microliters of stationary culture diluted in 0.85% NaCl to 10^6 cells/ml were spotted on per plate. […] MICs were also determined on Mueller Hinton agar plates (0.2% beef extract, 1.75% acid digest of casein, 0.15% soluble starch, 1.5% agar, pH 7.3).

B. subtilis 168 = test: as above; format: cell-based, Bacillus subtilis; settings: for MIC: Bacillus subtilis, 168, read-out: MIC B. subtilis; for MIC B. subtilis: Example 2, methods as in Example 1
Description: as §1, §2

S. typhimurium NBRC13245 = test: as above; format: cell-based, Salmonella typhimurium; settings: for MIC S. typhimurium: Example 2, methods as in Example 1; for MIC: Salmonella enterica, read-out: MIC S. typhimurium
Description: as §1, §2

E. coli MG1655 [1] = test: as above; format: cell-based; settings: for MIC: Escherichia coli, MG1655, read-out: MIC E. coli; for MIC E. coli: Example 2, methods as in Example 1
Description: as §1, §2

E. coli MG1655 [2] = test: Microscopic observation of cell shape; format: cell-based
Description: Microscopic observation. E. coli K-12 strain MG1655 (F^− λ^−) was grown in Lennox broth containing 1% Polypepton, 0.5% yeast extract, 0.5% NaCl, and 0.1% glucose (pH 7.2). Cells spread on a slide glass were treated with methanol for 5 min and covered with poly-L-lysine. The fixed cells were observed by the differential interference contrast system through an Axioskop 2 microscope (Carl Zeiss Co., Ltd., Oberkochen, Germany). To observe the anucleate cells, cells were stained with a 4′,6-diamidino-2-phenylindole (DAPI) solution (5 μg/ml in saline) and then observed by the fluorescence phase-contrast combined method.
The effect of each compound on E. coli cell morphology was next examined.

[3] = test system: S. aureus subsp. aureus NBRC15035; test: Determination of minimum inhibitory concentration (MIC); format: cell-based, Staphylococcus aureus; settings: for MIC S. aureus: Example 2, methods as in Example 1; for MIC: Staphylococcus aureus, NBRC15035, read-out: MIC S. aureus
Description: as §1, §2

[4] = test system: E. coli K-12 strain SH3210; test: Anucleate cell blue assay; format: cell-based
Description: Anucleate cell blue assay. The anucleate cell blue assay was carried out as reported previously. Briefly, E. coli K-12 strain SH3210 (ΔtrpE5 his λ pXX747) was grown in a P medium containing 1% Polypepton and 0.5% NaCl (pH 7). Paper disks (φ 8 mm) each soaked with 20 μl of a sample solution were placed on P medium agar plates (1.5% agar) containing 10^4 cells/ml of SH3210 and 40 μg/ml of 5-bromo-4-chloro-3-indolyl β-D-galactoside. The plates were incubated at 42° C. for 24 h, and the development of a blue color and the growth inhibitory zone around the paper disks were evaluated.
Since 1 had originally been found through screening by an anucleate cell blue assay, the effect of each compound was first examined by this assay.

Caulobacter = Caulobacter morphology (DIC images); format: cell-based, Caulobacter crescentus; settings: drugs that affect eukaryotic actin
Excerpt: Consistent with previous observations in E. coli (Iwai et al., 2002), A22 caused a dose-dependent alteration of Caulobacter morphology, transforming normal, crescent-shaped cells into rounded, lemon-shaped cells. The progression of cell shape deformation by A22 treatment was qualitatively similar to that caused by mreB depletion, though the A22 effect was more rapid (FIGS. […]). […] For example, A22 could disrupt the localization of new cell wall synthesis but have no effect on the existing cell wall, such that without additional growth and wall synthesis A22's effects cannot be perceived. A dependence on cell growth could also explain why A22's effect on morphology takes several hours to manifest.
Microscopy and Timelapse Imaging. All experiments other than the A22 flow-cell analysis were performed by mounting the samples on 1% agarose pads as described, with the appropriate concentration of A22 added to the agarose. The rates of origin-distal locus segregation were determined by inducing PxyI:lacI:cfp expression with 0.03% xylose for 75 min, isolating swarmer cells, and growing the swarmer cells in M2G liquid medium for 50 min. After 50 min, 10 μg/ml of A22 was added to these liquid cultures, they were mounted onto 1% M2G agarose pads containing 10 μg/ml A22, and a phase and CFP fluorescence image was captured every 2 min for 60 min. The images were analyzed by previously described software to determine the average position and rate of movement of the observed foci.

HoIB-GFP = HoIB-GFP (replisome) localization; format: cell-based, Caulobacter crescentus; settings: 1 hr treatment
Description: To assess the ability of these cells to assemble a replisome at the replication origins, A22 was administered to cells expressing a fusion of GFP to the HoIB subunit of DNA polymerase.

[5] = E. coli MG1655 treated at 300 μg/ml (**), 30° C., 16 h
[6] = Example 2, methods as in Example 1

O=C=NCc1ccccc1 [Compound 9, benzylisocyanate, reference compound]
MIC P. putida (P. putida NBRC14164): >100 µg/mL | MIC (P. putida NBRC14164): > 100 µg/mL | MIC (B. subtilis 168): > 100 µg/mL | MIC B. subtilis (B. subtilis 168): >100 µg/mL | MIC S. typhimurium (S. typhimurium NBRC13245): >100 µg/mL | MIC (S. typhimurium NBRC13245): > 100 µg/mL | MIC (E. coli MG1655 [1]): > 100 µg/mL | MIC E. coli (E. coli MG1655 [1]): >100 µg/mL | Shape (E. coli MG1655 [2]; [5]): Rod** | Shape (E. coli MG1655 [2]; [6]): Rod | MIC S. aureus [3]: >100 µg/mL | MIC [3]: > 100 µg/mL | Growth inhibitory zone and blue zone in the anucleate cell blue assay (in words) [4]: neither a growth inhibitory zone nor blue zone

NC(=S)Nc1ccccc1 [Compound 10, N-phenylthiourea, reference compound]
MIC P. putida (P. putida NBRC14164): >100 µg/mL | MIC (P. putida NBRC14164): > 100 µg/mL | MIC (B. subtilis 168): > 100 µg/mL | MIC B. subtilis (B. subtilis 168): >100 µg/mL | MIC S. typhimurium (S. typhimurium NBRC13245): >100 µg/mL | MIC (S. typhimurium NBRC13245): > 100 µg/mL | MIC (E. coli MG1655 [1]): > 100 µg/mL | MIC E. coli (E. coli MG1655 [1]): >100 µg/mL | Shape (E. coli MG1655 [2]; [5]): Rod** | Shape (E. coli MG1655 [2]; [6]): Rod | MIC S. aureus [3]: >100 µg/mL | MIC [3]: > 100 µg/mL | Growth inhibitory zone and blue zone in the anucleate cell blue assay (in words) [4]: neither a growth inhibition nor blue zone

C=C1[C@@H](C)[C@H]2[C@H](Cc3ccccc3)NC(=O)[C@]23[C@H](OC(C)=O)/C=C/[C@@](C)(O)C(=O)[C@@H](C)C/C=C/[C@H]3[C@@H]1O [cytochalasin D]
Caulobacter growth rate or morphology (Caulobacter): failed to perturb growth rate or morphology

C/C1=C\[C@H](C)C[C@H](C)OC(=O)C[C@H](c2ccc(O)cc2)NC(=O)[C@@H](Cc2c(Br)[nH]c3ccccc23)N(C)C(=O)[C@H](C)NC(=O)[C@@H](C)C1 [jasplakinolide]
Caulobacter growth rate or morphology (Caulobacter): failed to perturb growth rate or morphology

CO[C@@H]1[C@@H](OC(N)=O)[C@@H](O)[C@H](Oc2ccc3c(O)c(NC(=O)c4ccc(O)c(CC=C(C)C)c4)c(=O)oc3c2C)OC1(C)C [novobiocin]
HoIB-GFP localization (HoIB-GFP): rapid delocalization of HoIB-GFP

C[C@@H]1NC(=O)[C@H](C[C@@](C)(O)CO)NC(=O)[C@@H]2Cc3c([nH]c4ccccc34)SC[C@H](NC(=O)[C@@H]([C@H](C)O)NC1=O)C(=O)N1C[C@@H](O)C[C@H]1C(=O)N[C@@H](C)C(=O)N2 [phalloidin] (cyclo(A[dT]C[cisHyp]A[Trp(2-yl)][Leu(4R-OH,5-OH)]); thioether 3-6)
Caulobacter growth rate or morphology (Caulobacter): failed to perturb growth rate or morphology

latrunculin
Caulobacter growth rate or morphology (Caulobacter): failed to perturb growth rate or morphology
